Measured values taken from ChEMBL document CHEMBL5154818, “Development of oxoisoaporphine derivatives with topoisomerase I inhibition and reversal of multidrug resistance in breast cancer MCF-7/ADR cells” (Eur J Med Chem, 2022).
pIC50: −log10 of the molar value. Activity calls are given as the source filed them. The calls are words filed in the database; no cut-off is given here.

Tests used:
[1] = tested on: A549; test: Antiproliferative activity against human A549 cells after 48 hrs by MTT assay; assay type: functional, cell-based; conditions: A549, 48 h
[2] = tested on: HepG2; test: Antiproliferative activity against human HepG2 cells after 48 hrs by MTT assay; assay type: functional, cell-based; conditions: HepG2, 48 h
[3] = tested on: MCF7; test: Antiproliferative activity against human MCF7 cells after 48 hrs by MTT assay; assay type: functional, cell-based; conditions: MCF7, 48 h
[4] = tested on: NCI/ADR-RES; test: Antiproliferative activity against human MCF7/ADR cells after 48 hrs by MTT assay; assay type: functional, cell-based
[5] = tested on: MDA-MB-231; test: Antiproliferative activity against human MDA-MB-231 cells after 48 hrs by MTT assay; assay type: functional, cell-based; conditions: MDA-MB-231, 48 h
[6] = tested on: L02; test: Antiproliferative activity against human L02 cells after 48 hrs by MTT assay; assay type: functional, cell-based; conditions: L02, 48 h
[7] = tested on: Calf thymus DNA; test: Binding affinity to calf thymus DNA assessed as hypochromicity at 20 uM measured by UV-vis absorption spectroscopy; assay type: nucleic-acid assay; conditions: Bos taurus
[8] = tested on: MCF7; test: Induction of cell cycle arrest in human MCF7 cells assessed accumulation of cells at G1 phase at 2 uM measured after 48 hrs by propidium iodide staining based flow cytometric analysis (reference value: 45.94%); assay type: functional
[9] = tested on: MCF7; test: Induction of cell cycle arrest in human MCF7 cells assessed accumulation of cells at G2 phase at 2 uM measured after 48 hrs by propidium iodide staining based flow cytometric analysis (reference value: 37.81%); assay type: functional
[10] = tested on: MCF7; test: Induction of cell cycle arrest in human MCF7 cells assessed accumulation of cells at G1 phase at 4 uM measured after 48 hrs by propidium iodide staining based flow cytometric analysis (reference value: 45.94%); assay type: functional
[11] = tested on: MCF7; test: Induction of cell cycle arrest in human MCF7 cells assessed accumulation of cells at S phase at 4 uM measured after 48 hrs by propidium iodide staining based flow cytometric analysis (reference value: 27.53%); assay type: functional
[12] = tested on: MCF7; test: Induction of cell cycle arrest in human MCF7 cells assessed accumulation of cells at G2 phase at 4 uM measured after 48 hrs by propidium iodide staining based flow cytometric analysis (reference value: 37.81%); assay type: functional
[13] = tested on: MCF7; test: Induction of cell cycle arrest in human MCF7 cells assessed accumulation of cells at S phase at 8 uM measured after 48 hrs by propidium iodide staining based flow cytometric analysis (reference value: 27.53%); assay type: functional
[14] = tested on: MCF7; test: Induction of cell cycle arrest in human MCF7 cells assessed accumulation of cells at G2 phase at 8 uM measured after 48 hrs by propidium iodide staining based flow cytometric analysis (reference value: 37.81%); assay type: functional
[15] = tested on: MCF7; test: Induction of apoptosis in human MCF7 cells assessed as early apoptotic cells at 2 to 8 uM incubated for 48 hrs by Annexin V-FITC/propidium iodide staining based flow cytometry analysis; assay type: functional; conditions: dose 2-8 µM
[16] = tested on: MCF7; test: Induction of apoptosis in human MCF7 cells assessed as late apoptotic cells at 2 to 8 uM incubated for 48 hrs by Annexin V-FITC/propidium iodide staining based flow cytometry analysis; assay type: functional; conditions: dose 2-8 µM
[17] = tested on: MCF7; test: Induction of apoptosis in human MCF7 cells assessed as increase in cleaved PARP expression 1.5 to 6 uM incubated for 24 hrs by Western blotting analysis; assay type: functional, cell-based; conditions: dose 1.5-6 µM
[18] = tested on: MCF7; test: Antiproliferative activity against human MCF7 cells assessed as growth inhibition at 3 uM after 48 hrs by MTT assay relative to control; assay type: functional; conditions: read-out: GI
[19] = tested on: NCI/ADR-RES; test: Reversal of multidrug resistant activity in human MCF7/ADR cells after 48 hrs by MTT assay; assay type: functional, cell-based
[20] = species: Danio rerio; test: Induction of apoptosis in zebrafish embryo assessed as increase intracellular ROS level at 0.01 to 1 uM measured by DCFH-DA dye based flow cytometric analysis; assay type: functional, organism-based; conditions: dose 0.01-1 µM
[21] = tested on: NCI/ADR-RES; test: Induction of apoptosis in human MCF7/ADR cells assessed as increase in Bax expression at 5 to 20 uM measured after 24 hrs by Western blotting analysis; assay type: functional, cell-based; conditions: dose 5-20 µM
[22] = tested on: NCI/ADR-RES; test: Induction of apoptosis in human MCF7/ADR cells assessed as increase in Bad expression at 5 to 20 uM measured after 24 hrs by Western blotting analysis; assay type: functional, cell-based; conditions: dose 5-20 µM
[23] = target: T1, ATP-dependent translocase ABCB1 (Homo sapiens, UniProt P08183); test: Inhibition of P-gp-mediated multidrug resistance in human MCF7/ADR cells at 10 to 20 uM assessed as adriamycin accumulation treated with adriamycin measured after 24 hrs by flow cytometry; assay type: cell-based; conditions: nci/adr-res, dose 10-20 µM
[24] = target: T1, ATP-dependent translocase ABCB1; test: Inhibition of P-gp-mediated multidrug resistance in human MCF7/ADR cells at 10 to 20 uM assessed as rhodamine123 accumulation treated with rhodamine123 measured after 24 hrs by flow cytometry; assay type: cell-based; conditions: nci/adr-res, dose 10-20 µM
[25] = target: T1, ATP-dependent translocase ABCB1; test: Inhibition of P-gp-mediated multidrug resistance in human MCF7/ADR cells assessed as decrease in P-gp expression at 10 uM measured after 24 hrs by Western blot analysis; assay type: cell-based; conditions: NCI/ADR-RES
[26] = target: T1, ATP-dependent translocase ABCB1; test: Inhibition of P-gp-mediated multidrug resistance in human MCF7/ADR cells assessed as decrease in P-gp expression at 20 uM measured after 24 hrs by Western blot analysis; assay type: cell-based; conditions: NCI/ADR-RES
[27] = tested on: MCF7; test: Antitumor activity against human MCF7 cells xenografted in Balb/c nude mouse assessed as tumor growth inhibition at 1 mg/kg, ip administered 3 times a week for 3 weeks; assay type: functional; conditions: MCF7, 504 h, read-out: TGI
[28] = tested on: MCF7; test: Antitumor activity against human MCF7 cells xenografted in Balb/c nude mouse assessed as tumor growth inhibition at 10 mg/kg, ip administered 3 times a week for 3 weeks; assay type: functional; conditions: MCF7, 504 h, read-out: TGI
[29] = Toxicity in BALB/c nude mouse xenografted with human MCF7 cells assessed as heart tissue damage at 1 to 10 mg/kg, ip administered 3 times a week for 3 weeks; assay type: organism-based; conditions: in vivo, 504 h, dose 1-10 mg/kg
[30] = Toxicity in BALB/c nude mouse xenografted with human MCF7 cells assessed as lung tissue damage at 1 to 10 mg/kg, ip administered 3 times a week for 3 weeks; assay type: organism-based; conditions: in vivo, 504 h, dose 1-10 mg/kg
[31] = Toxicity in BALB/c nude mouse xenografted with human MCF7 cells assessed as kidney tissue damage at 1 to 10 mg/kg, ip administered 3 times a week for 3 weeks; assay type: organism-based; conditions: in vivo, 504 h, dose 1-10 mg/kg
[32] = Toxicity in BALB/c nude mouse xenografted with human MCF7 cells assessed as liver tissue damage at 1 to 10 mg/kg, ip administered 3 times a week for 3 weeks; assay type: organism-based; conditions: in vivo, 504 h, dose 1-10 mg/kg
[33] = Toxicity in BALB/c nude mouse xenografted with human MCF7 cells assessed as increase in survival rate at 10 mg/kg, ip administered 3 times a week for 3 weeks; assay type: organism-based; conditions: in vivo, 504 h

T1 sequence (P08183 whole entry): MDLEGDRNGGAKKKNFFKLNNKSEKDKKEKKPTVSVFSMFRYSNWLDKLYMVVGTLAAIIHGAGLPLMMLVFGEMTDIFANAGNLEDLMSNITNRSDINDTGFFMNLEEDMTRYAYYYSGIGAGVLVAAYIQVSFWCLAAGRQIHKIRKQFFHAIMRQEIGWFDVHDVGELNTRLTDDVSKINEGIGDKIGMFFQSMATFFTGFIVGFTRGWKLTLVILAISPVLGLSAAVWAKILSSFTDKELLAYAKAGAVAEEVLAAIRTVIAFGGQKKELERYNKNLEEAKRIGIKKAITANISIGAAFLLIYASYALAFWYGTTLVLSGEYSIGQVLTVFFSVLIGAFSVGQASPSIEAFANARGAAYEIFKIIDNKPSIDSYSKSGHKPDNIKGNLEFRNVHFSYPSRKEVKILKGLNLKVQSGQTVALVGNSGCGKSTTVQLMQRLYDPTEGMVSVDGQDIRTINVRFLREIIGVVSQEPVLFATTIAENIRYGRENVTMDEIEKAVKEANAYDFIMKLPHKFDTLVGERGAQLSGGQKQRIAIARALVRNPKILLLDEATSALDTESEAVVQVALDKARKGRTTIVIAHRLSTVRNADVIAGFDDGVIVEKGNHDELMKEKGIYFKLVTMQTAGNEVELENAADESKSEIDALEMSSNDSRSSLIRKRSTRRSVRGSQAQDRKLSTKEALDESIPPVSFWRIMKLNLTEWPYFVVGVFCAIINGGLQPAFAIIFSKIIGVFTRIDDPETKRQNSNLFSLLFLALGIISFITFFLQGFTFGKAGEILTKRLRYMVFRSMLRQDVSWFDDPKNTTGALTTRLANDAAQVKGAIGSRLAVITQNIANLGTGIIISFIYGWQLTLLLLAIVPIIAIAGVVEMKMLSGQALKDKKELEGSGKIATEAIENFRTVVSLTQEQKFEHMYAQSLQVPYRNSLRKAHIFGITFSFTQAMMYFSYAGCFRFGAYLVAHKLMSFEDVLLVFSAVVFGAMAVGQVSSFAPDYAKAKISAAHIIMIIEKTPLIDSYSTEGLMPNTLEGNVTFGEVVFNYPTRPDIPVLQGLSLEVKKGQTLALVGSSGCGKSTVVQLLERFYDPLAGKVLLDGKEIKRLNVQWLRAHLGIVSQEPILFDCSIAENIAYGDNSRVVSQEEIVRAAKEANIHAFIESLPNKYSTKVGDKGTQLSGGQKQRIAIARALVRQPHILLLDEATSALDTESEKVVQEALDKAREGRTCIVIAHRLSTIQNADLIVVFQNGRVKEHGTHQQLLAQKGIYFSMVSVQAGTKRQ

CC1CCCCN1CCOc1ccc2c3c(nccc13)-c1ccccc1C2=O (stereo not drawn) showed a pIC50 [1] of 5.62, a pIC50 [2] of 5.31 and a pIC50 [3] of 5.88. For the same molecule, the pIC50 [4] was 5.12, the pIC50 [5] was 5.62 and the pIC50 [6] was 4.44. For the same molecule, the Activity [7] was 33.9%, the Activity [8] was 49.45% and the Activity [9] was 33.28%. The Activity [10] was 51.07%, the Activity [11] was 25.08% and the Activity [12] was 32.26%. It also gave an Activity [13] of 24.3%, an Activity [14] of 31.38% and an Activity [15] of 5.4%. The Activity [16] was 59.5%, the Activity [17] was “Active” and the inhibition of growth at 3 µM [18] was 24.4%. For the same molecule, the pIC50 [19] was 6.05, the Activity [20] was “Active” and the Activity [21] was “Active”. For the same molecule, the Activity [22] was “Active”, the “inhibition (INH)” value [23] was “Active” and the “inhibition (INH)” value [24] was “Active”. It also gave an inhibition at 10 µM [25] of 14.9%, an inhibition at 20 µM [26] of 18.1% and an inhibition in vivo at 1 mg/kg [27] of 32.4%. For the same molecule, the inhibition in vivo at 10 mg/kg [28] was 7.2%, the Activity [29] was “Non-Toxic” and the Activity [30] was “Non-Toxic”. The Activity [31] was “Non-Toxic”, the Activity [32] was “Non-Toxic” and the Activity [33] was “Non-Toxic”.
